According to PubChem BioAssay (NCI):
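48-hour exposure; five concentrations; linearly interpolated endpoints. The concentration for full growth arrest is given as TGI.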

Tests used:
Test in all cases: NCI tumour cell line growth inhibition, 48 h
[1] = test system: RPMI-8226 leukemia
[2] = test system: MCF7 breast
[3] = test system: SK-MEL-2 melanoma
[4] = test system: T-47D breast
[5] = test system: UACC-257 melanoma
[6] = test system: HCT-15 colon
[7] = test system: LOX IMVI melanoma
[8] = test system: IGROV1 ovarian
[9] = test system: EKVX NSCLC
[10] = test system: MDA-MB-435
[11] = test system: SR leukemia
[12] = test system: SF-268 CNS
[13] = test system: NCI-H460 lung
[14] = test system: NCI-H226 lung
[15] = test system: OVCAR-4 ovarian
[16] = test system: OVCAR-3 ovarian
[17] = test system: U251 CNS
[18] = test system: MALME-3M melanoma
[19] = test system: HOP-92 NSCLC
[20] = test system: UACC-62 melanoma
[21] = test system: ACHN renal
[22] = test system: SN12C renal
[23] = test system: OVCAR-8 ovarian
[24] = test system: SNB-75 CNS
[25] = test system: SF-539 CNS
[26] = test system: NCI-H522 lung
[27] = test system: K-562 leukemia
[28] = test system: PC-3 prostate
[29] = test system: MDA-MB-231 breast
[30] = test system: SF-295 CNS
[31] = test system: HL-60(TB) leukemia
[32] = test system: HT29 colon
[33] = test system: HCT-116 colon
[34] = test system: SK-OV-3 ovarian
[35] = test system: NCI/ADR-RES ovarian
[36] = test system: SK-MEL-5 melanoma
[37] = test system: BT-549 breast
[38] = test system: SNB-19 CNS
[39] = test system: SK-MEL-28 melanoma
[40] = test system: MOLT-4 leukemia
[41] = test system: NCI-H23 lung
[42] = test system: CAKI-1 renal
[43] = test system: 786-0 renal
[44] = test system: DU-145 prostate
[45] = test system: HOP-62 NSCLC
[46] = test system: OVCAR-5 ovarian
[47] = test system: CCRF-CEM leukemia
[48] = test system: UO-31 renal
[49] = test system: M14 melanoma
[50] = test system: TK-10 renal
[51] = test system: A549 NSCLC
[52] = test system: COLO 205 colon
[53] = test system: SW-620 colon
[54] = test system: HS 578T breast
[55] = test system: RXF 393 renal
[56] = test system: KM12 colon
[57] = test system: HCC-2998 colon

## CCOC(=O)C1=C(c2ccccc2)N(C)c2ccccc2S1
[1]
  TGI: 66.5 µM
[2]
  TGI: 78.8 µM
[3]
  TGI: 45.3 µM
[4]
  TGI: 73.9 µM
[5]
  TGI: 86.1 µM
[6]
  TGI: 31.3 µM
[7]
  TGI: 30.3 µM
[8]
  TGI: > 100 µM
[9]
  TGI: > 100 µM
[10]
  TGI: > 100 µM
[11]
  TGI: > 100 µM
[12]
  TGI: 97.3 µM
[13]
  TGI: 63.6 µM
[14]
  TGI: 54.1 µM
[15]
  TGI: > 100 µM
[16]
  TGI: > 100 µM
[17]
  TGI: 49.1 µM
[18]
  TGI: > 100 µM
[19]
  TGI: > 100 µM
[20]
  TGI: 53.2 µM
[21]
  TGI: 58.5 µM
[22]
  TGI: 58.2 µM
[23]
  TGI: > 100 µM
[24]
  TGI: > 100 µM
[25]
  TGI: > 100 µM
[26]
  TGI: 52.3 µM
[27]
  TGI: > 100 µM
[28]
  TGI: > 100 µM
[29]
  TGI: 58.9 µM
[30]
  TGI: > 100 µM
[31]
  TGI: > 100 µM
[32]
  TGI: 46.1 µM
[33]
  TGI: 73.3 µM
[34]
  TGI: > 100 µM
[35]
  TGI: 65.1 µM
[36]
  TGI: 30.3 µM
[37]
  TGI: 66.6 µM
[38]
  TGI: > 100 µM
[39]
  TGI: > 100 µM
[40]
  TGI: > 100 µM
[41]
  TGI: 60.4 µM
[42]
  TGI: > 100 µM
[43]
  TGI: > 100 µM
[44]
  TGI: > 100 µM
[45]
  TGI: > 100 µM
[46]
  TGI: > 100 µM
[47]
  TGI: > 100 µM
[48]
  TGI: 81 µM
[49]
  TGI: > 100 µM
[50]
  TGI: > 100 µM
[51]
  TGI: > 100 µM
[52]
  TGI: > 100 µM
[53]
  TGI: > 100 µM
[54]
  TGI: 72.3 µM

## C[C@@H](O)C(=O)N1[C@@H]2CC3CC[C@]2(CS1(=O)=O)C3(C)C
[1]
  TGI: > 100 µM
[2]
  TGI: > 100 µM
[3]
  TGI: > 100 µM
[4]
  TGI: > 100 µM
[5]
  TGI: > 100 µM
[6]
  TGI: > 100 µM
[7]
  TGI: > 100 µM
[8]
  TGI: > 100 µM
[9]
  TGI: > 100 µM
[10]
  TGI: > 100 µM
[11]
  TGI: 58.5 µM
[13]
  TGI: > 100 µM
[14]
  TGI: 65.3 µM
[15]
  TGI: > 100 µM
[16]
  TGI: > 100 µM
[17]
  TGI: > 100 µM
[19]
  TGI: > 100 µM
[20]
  TGI: > 100 µM
[55]
  TGI: > 100 µM
[21]
  TGI: > 100 µM
[22]
  TGI: > 100 µM
[23]
  TGI: > 100 µM
[24]
  TGI: > 100 µM
[25]
  TGI: > 100 µM
[27]
  TGI: > 100 µM
[28]
  TGI: > 100 µM
[29]
  TGI: > 100 µM
[30]
  TGI: > 100 µM
[31]
  TGI: > 100 µM
[32]
  TGI: > 100 µM
[33]
  TGI: > 100 µM
[34]
  TGI: > 100 µM
[35]
  TGI: > 100 µM
[36]
  TGI: > 100 µM
[37]
  TGI: > 100 µM
[38]
  TGI: > 100 µM
[39]
  TGI: > 100 µM
[40]
  TGI: > 100 µM
[41]
  TGI: > 100 µM
[42]
  TGI: > 100 µM
[43]
  TGI: > 100 µM
[44]
  TGI: > 100 µM
[56]
  TGI: > 100 µM
[57]
  TGI: > 100 µM
[45]
  TGI: > 100 µM
[46]
  TGI: > 100 µM
[47]
  TGI: 72.9 µM
[48]
  TGI: > 100 µM
[49]
  TGI: > 100 µM
[50]
  TGI: > 100 µM
[51]
  TGI: > 100 µM
[52]
  TGI: > 100 µM
[53]
  TGI: > 100 µM
